# Experimental data as given in paper PMC8427023, “Bithiazole Inhibitors of Phosphatidylinositol 4‐Kinase (PI4KIIIβ) as Broad‐Spectrum Antivirals Blocking the Replication of SARS‐CoV‐2, Zika Virus, and Human Rhinoviruses” (Chemmedchem, 2021).
# Like-named read-outs stand apart in the source and are kept apart here. Marks after values point to notes of the source that are not given here.
# Tests used:
# [1] = Stability in medium/serum solution; assay type: in vitro ADME; conditions: EMEM, 2 mM L-glut, 1 % FBS, 1 % Pen/Strep, 37 °C
# in vitro [2] = conditions: human
# [3] = assay type: in vitro ADME; conditions: human, 24 h, 100 µM, pH 7.4
# Procedure: appropriate calibration curve. […]
# (§1) Stability in Human Plasma
# (§2) Pooled human plasma (1.5 mL, […]), PBS (1.4 mL, pH 7.4, 25 mM) and tested compound dissolved in DMSO (100 µL, 3.0 mM) were mixed in a test tube that was incubated at 37 […]
# mixed with 600 µL of cold acetonitrile and centrifuged at 5000 rpm for 15 min [3]. The supernatant was removed and analyzed by LC-UV-MS. For each compound, the determination was performed in three independent experiments. […]
# [4] = Cytotoxicity assay (CellTiter-Glo 2.0) in Calu-3 cells; assay type: cell-based; conditions: human, half-maximal cytotoxic concentration, read-out: SARS-CoV-2 Calu-3 CC50
# in vitro [5] = conditions: human; remark: listed apart in the source
# in vitro [6] = assay type: in vitro ADME; conditions: PAMPA, pH 7.4; for Membrane Retention (% MR): 5 h, 500 μM
# Procedure: (§3) appropriate calibration curve. For each compound, the determination was performed in three […]
# (§4) Parallel Artificial Membrane Permeability Assay (PAMPA)
# (§5) Each ‘donor solution’ was prepared from a solution of each compound (DMSO, 1 mM) diluted with 25 mM Phosphate Buffered Saline (PBS) at pH 7.4, up to a final concentration of 500 μM. The donor wells were filled with 150 µL of ‘donor solution’. The filters were coated with 5 μL of a solution of phosphatidylcholine in dodecane 1% (w/v) and the lower wells filled with 300 µL of ‘acceptor solution’ (50% v/v DMSO and PBS). The sandwich plate was assembled and incubated for 5 hours at room temperature under gentle shaking. At the end of the incubation time, the sandwich was disassembled and the amount of compound in the donor and acceptor wells was measured by LC-UV-MS. For each compound, the determination was performed in three independent experiments.
# Apparent permeability (Papp) and membrane retention (%MR) were calculated according to the equations reported in reference. […]
# hRV14 [7] = test: Multicycle CPE reduction antiviral assay, hRV14 in HeLa cells; assay type: cell-based, human rhinovirus 14; conditions: 3 days
# [8] = Stability in medium/serum solution; assay type: in vitro ADME; conditions: EMEM, 2 mM L-glut, 1 % FBS, 1 % Pen/Strep, 37 °C; remark: listed apart in the source
# Procedure: as §3, §4, §5
# Apparent permeability (Papp) and membrane retention (%MR) were calculated according to the equations reported in reference.
# as §1, §2
# mixed with 600 µL of cold acetonitrile and centrifuged at 5000 rpm for 15 min [3]. The supernatant was removed and analyzed by LC-UV-MS. For each compound, the determination was performed in three independent experiments.
# Stability in Medium/Serum solution
# The stability of compounds under the experimental conditions used in the ENTRY-DYRA antiviral assay was evaluated. Each tested compound dissolved din DMSO (1.0 mL, 400 µM) was mixed in a test tube with EMEM, 2 mM L-glut, 1% FBS, 1% Pen/Strep solution (final concentration of the compound of 200 µM) and then incubated at 37 °C. At set time points (0.0, 0.08, 0.25, 0.50, 1.0, 3.0, and 24.0 h), samples of 100 µL were taken, mixed with 400 µL of cold acetonitrile and centrifuged at 5000 rpm for 15 min. The supernatant was removed and analyzed by UV/LC-MS. For each compound, the determination was performed in three independent experiments.
# PI4KIIIβ = target: T1, PI4KIIIβ (Homo sapiens, UniProt Q9UBF8); test: In vitro kinase inhibition assay, PI4KIIIβ; assay type: biochemical; conditions: mean of at least three independent experiments; 20 μM ATP
# T1 construct: Recombinant full length, HIS6 -tagged PI4KIIIβ was purchased from ProQinase; His6; purchased ProQinase (Germany)
# T1 sequence (Q9UBF8 whole entry): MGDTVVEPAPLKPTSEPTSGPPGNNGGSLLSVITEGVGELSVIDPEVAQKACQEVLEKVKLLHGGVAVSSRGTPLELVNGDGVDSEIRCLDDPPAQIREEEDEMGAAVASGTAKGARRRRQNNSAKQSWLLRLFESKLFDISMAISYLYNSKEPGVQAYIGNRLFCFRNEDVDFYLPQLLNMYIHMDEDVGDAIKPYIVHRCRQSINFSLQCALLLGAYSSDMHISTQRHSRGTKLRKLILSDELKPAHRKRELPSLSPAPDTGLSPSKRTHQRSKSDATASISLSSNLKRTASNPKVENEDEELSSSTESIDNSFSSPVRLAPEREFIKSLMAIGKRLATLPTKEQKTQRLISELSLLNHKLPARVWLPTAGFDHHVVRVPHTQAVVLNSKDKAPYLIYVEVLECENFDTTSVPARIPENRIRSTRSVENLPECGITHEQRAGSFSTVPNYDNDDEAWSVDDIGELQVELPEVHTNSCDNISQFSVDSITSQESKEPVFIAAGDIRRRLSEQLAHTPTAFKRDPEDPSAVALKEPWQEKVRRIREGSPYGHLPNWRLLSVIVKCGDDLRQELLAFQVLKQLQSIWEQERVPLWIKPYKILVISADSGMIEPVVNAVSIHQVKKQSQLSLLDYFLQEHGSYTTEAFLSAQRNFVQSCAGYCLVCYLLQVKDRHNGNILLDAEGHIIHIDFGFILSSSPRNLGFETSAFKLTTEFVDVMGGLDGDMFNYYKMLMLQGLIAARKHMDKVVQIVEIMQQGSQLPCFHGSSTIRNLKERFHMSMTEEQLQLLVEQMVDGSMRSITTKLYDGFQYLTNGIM
# in vitro [9] = conditions: human; remark: listed apart in the source
# physchem = assay type: physicochemical; conditions: pH 7.4, aqueous buffer
# ZIKV = test: Direct yield reduction assay (DYRA), ZIKV in Huh7 cells; assay type: cell-based, Zika virus; conditions: for IC50: Zika virus, read-out: ZIKV Huh7 IC50
# hRV2 [10] = test: Multicycle CPE reduction antiviral assay, hRV2 in HeLa cells; assay type: cell-based, human rhinovirus 2; conditions: 3 days
# SARS-CoV-2 [11] = test: ENTRY-DYRA (entry inhibitor protocol), SARS-CoV-2 in Calu-3 cells; assay type: cell-based
# in vitro [12] = conditions: human; remark: listed apart in the source
# SARS-CoV-2 [13] = test: microbe, parasite or virus in culture; assay type: cell-based; conditions: for IC50: read-out: SARS-CoV-2 Calu-3 IC50 (DYRA protocol)
# HeLa = conditions: read-out: HeLa CC50; HeLa cells
# [14] = Cytotoxicity assay (CellTiter-Glo 2.0) in Huh7 cells; conditions: human
# Enterovirus-A71 (EV-A71) = test system: Enterovirus-A71 (EV-A71); design: method as in PMID 28122178, PMID 31729878; conditions: at low micromolar concentration; cited from earlier work
# hRV14 [15] = test system: hRV14; design: method as in PMID 31729878; conditions: HeLa cells; cited from earlier work
# coxsackievirus B3 (CVB3) = test system: coxsackievirus B3 (CVB3); design: method as in PMID 28122178, PMID 31729878; conditions: at low micromolar concentration; cited from earlier work
# hRV2 [16] = test system: hRV2; design: method as in PMID 31729878; conditions: HeLa cells; cited from earlier work
# [17] = PAMPA; cited from earlier work
# [18] = C57BL/6 mice, up to 180 mg/kg; cited from earlier work
# [19] = pH 7.4; cited from earlier work
# [20] = Severe acute respiratory syndrome coronavirus 2, Calu-3 cells, 72 h incubation, ±SD, NA: Not active
# [21] = Severe acute respiratory syndrome coronavirus 2, Calu-3, 72 h
# [22] = Calu-3 cells treated 1 h before infection, compound and virus removed, 72 h incubation
SMILES,Stability in Medium/Serum 48 h [1] [%],CC50 (in vitro [2]) [µM],Plasma Stability [3] [%],CC50 [4] [µM],"viability at 4 h, 50 µM (in vitro [5]) [%]",Membrane Retention (% MR) (in vitro [6]) [%],"Papp at 5 h, 500 μM (in vitro [6]) [nm/s]","IC50 (hRV14 [7]; Rhinovirus B, HRV14, 72 h) [µM]",Stability in Medium/Serum 24 h [8] [%],IC50 (PI4KIIIβ) [µM],CC50 at 3 days (in vitro [9]) [µM],solubility (physchem) [µg/mL],"IC50 (ZIKV; Huh-7, Huh7 cells, DYRA, 72 h) [µM]","IC50 (hRV2 [10]; Rhinovirus A, HRV2, 72 h) [µM]",IC50 (SARS-CoV-2 [13]; [20]) [µM],other results
Cc1nc(NC(=O)C(C)(C)C)sc1-c1csc(NCC(O)CO)n1 (stereo not shown) [4 a],97.5,> 200,99.4,> 100,96,< 0.1,0.08,2.32 ± 1.54,99.0,0.29 ± 0.08,> 30,5.26,46.5 ± 2.96,1.77 ± 0.62,–,–
Cc1nc(NC(=O)C(C)(C)C)sc1-c1csc(N(CCO)CCO)n1 [4 b],84.9,125,90.2,> 100,92.6,0.94,0.21,2.07 ± 1.45,91.4,0.24 ± 0.05,> 30,0.28,5 ± 1.2,1.37 ± 1.31,–,–
Cc1nc(NC(=O)C(C)(C)C)sc1-c1csc(NCC(C)(C)O)n1 [4 c],67.3,37,92.3,> 100,98.3,< 0.1,3.23,0.48 ± 0.14,77,0.89 ± 0.2,> 30,0.32,0.83 ± 0.31,0.39 ± 0.01,–,–
Cc1nc(NC(=O)C(C)(C)C)sc1-c1csc(N(CC(C)(C)O)C2CCCCC2)n1 [4 d],85.7,4,92.4,17,94.8,18.05,117,1.4 ± 1.2,93.3,1.97 ± 0.79,23.8 ± 1.7,0.01,0.51 ± 0.05,0.9 ± 0.72,1.57 ± 0.38,"IC50 (SARS-CoV-2 [11]; Severe acute respiratory syndrome coronavirus 2, Calu-3 cells treated 1 h before infection, compound and virus removed, 72 h incubation, read-out: SARS-CoV-2 Calu-3 IC50 (ENTRY-DYRA conditions, in parenthesis) (converted)): 0.37 µM; viability (in vitro [12]): > 95%; selectivity index (SI) against SARS-CoV-2 under DYRA conditions (SARS-CoV-2 [13]; ratio between CC50 and IC50, Calu-3): 11; selectivity index (SI) against ZIKV (ZIKV; ratio between CC50 and IC50, Huh7): 8"
"Cc1nc2c(NCc3cccc(S(C)(=O)=O)c3)nccn2c1-c1ccc(O)c(F)c1 [BF738735, reference compound]",–,–,–,–,–,–,–,–,–,–,–,–,–,–,–,CC50 (HeLa): > 30 µM; IC50 (hRV14 [7]): 0.59 ± 0.28 µM; IC50 (hRV2 [10]): 0.39 ± 0.36 µM
"CN(C)C(=O)COC(=O)Cc1ccc(OC(=O)c2ccc(NC(=N)N)cc2)cc1 [CMT, Camostat, reference compound]",–,–,–,200,–,–,–,–,–,–,–,–,–,–,–,"IC50 (SARS-CoV-2 [11]; Severe acute respiratory syndrome coronavirus 2, Calu-3, read-out: SARS-CoV-2 Calu-3 IC50 (ENTRY-DYRA conditions, in parenthesis)): 0.04 µM; IC50 (SARS-CoV-2 [13]; [21]): 0.82 ± 0.32 µM"
"CCC(CC)COC(=O)[C@H](C)N[P@](=O)(OC[C@H]1O[C@@](C#N)(c2ccc3c(N)ncnn23)[C@H](O)[C@@H]1O)Oc1ccccc1 [RMD, Remdesivir, reference compound]",–,–,–,97,–,–,–,–,–,–,–,–,–,–,0.11 ± 0.04,–
"CC(C)OC(=O)[C@H](C)N[P@](=O)(OC[C@H]1O[C@@H](n2ccc(=O)[nH]c2=O)[C@](C)(F)[C@@H]1O)Oc1ccccc1 [SOF, Sofosbuivir, reference compound]",–,–,–,–,–,–,–,–,–,–,–,–,–,–,–,"CC50 [14]: 200 µM; IC50 (ZIKV; Huh-7, 72 h): 2.7 ± 0.5 µM"
Cc1nc(NC(=O)C(C)(C)C)sc1-c1csc(Nc2cccc(C(=O)O)c2)n1 [compound 1],93.1,110,99.1,45,94.1,< 0.1,0.52,–,96.4,–,36,0.21,–,–,–,"inhibition of EV-A71 replication in infected cells (Enterovirus-A71 (EV-A71)): inhibited; SARS-CoV-2 Calu-3 IC50 (ENTRY-DYRA conditions, in parenthesis) (SARS-CoV-2 [11]; [22]): no effect on the entry phase; IC50 (hRV14 [15]): 15.3 µM; inhibition of CVB3 replication in infected cells (coxsackievirus B3 (CVB3)): inhibited; IC50 (hRV2 [16]): 9.7 µM; IC50 (SARS-CoV-2 [13]; [21]): 7.45 ± 2.47 µM; IC50 (ZIKV; Huh-7, 72 h): 13.8 ± 4.08 µM"
CC(=O)c1cccc(N(CCO)c2nc(-c3sc(NC(=O)C(C)(C)C)nc3C)cs2)c1 [compound 2],90.4,16,–,40,94.5,< 0.1,–,–,98.5,2.1 ± 0.17,17,–,1 ± 0.1,–,3.95 ± 1.48,"Papp [17]: 1,1 10^−6 cm/sec; tolerability, acute toxicity and histological alterations in key biodistribution organs [18]: well tolerated; inhibition of EV-A71 replication in infected cells (Enterovirus-A71 (EV-A71)): inhibited; Aqueous Solubility [19]: 0.05* μg/mL; SARS-CoV-2 Calu-3 IC50 (ENTRY-DYRA conditions, in parenthesis) (SARS-CoV-2 [11]; [22]): no effect on the entry phase; IC50 (hRV14 [15]): > 9.1 µM; inhibition of CVB3 replication in infected cells (coxsackievirus B3 (CVB3)): inhibited; IC50 (hRV2 [16]): 6.1 µM"
